Calls of active or inactive are those of the source. The rule behind the calls is not given here.
Legend:
Colletotrichum lagenaria = assay: Antifungal activity against Colletotrichum lagenarium at 30 ug/ml by agar diffusion test; format: functional, organism-based
[1] = Toxicity in Artemia salina assessed as lethal rate at 100 ug/mL; format: organism-based; details: in vivo, read-out: Activity
Fusarium oxysporum = assay: Antifungal activity against Fusarium oxysporum at 30 ug/ml by agar diffusion test; format: functional, organism-based
Escherichia coli = assay: Antibacterial activity against Escherichia coli at 30 ug/ml by agar diffusion test; format: functional

Structure (SMILES)	Activity (Colletotrichum lagenaria)	mortality at 100 ug/mL [1] [%]	Activity (Fusarium oxysporum)	diameter of the inhibition zone (DIZ) (Escherichia coli)	zone of inhibition at 30 µg/mL (Escherichia coli; read-out: DIZ) [mm]
CC(C)=C[C@H]1C[C@]2(C)[C@H](CC[C@@]3(C)[C@H]2CC[C@H]2Cc4c([nH]c5ccccc45)[C@@]23C)O1	inactive	74.2	inactive	inactive	
C/C=C1\[C@H]2C=C(C)C[C@]1(N)c1ccc(=O)[nH]c1C2			inactive	inactive	
CC(C)=C[C@H]1C[C@]2(C)[C@H](CC[C@@]3(C)[C@H]2CC[C@H]2CC(=O)c4ccccc4NC(=O)[C@@]23C)O1 [ASPORYZIN A]	inactive	61.9	inactive	inactive	
CC(C)=C[C@H]1C[C@@]2(C)[C@@H]3CC[C@H]4CC5(O)c6ccccc6N5C(=O)[C@@H]4[C@@]3(C)CC[C@@H]2O1 (stereo partly specified) [ASPORYZIN B]	inactive	42.9	inactive	inactive	
CC(C)(O)/C=C/C[C@]1(C)[C@@H](O)CC[C@@]2(C)[C@H]1CC[C@H]1Cc3c([nH]c4ccccc34)[C@@]12C [ASPORYZIN C]	inactive	32.8	inactive		8.3
C=C1[C@H](Cc2c[nH]c3ccccc23)CC[C@H]2[C@](C)(CCC=C(C)C)[C@@H](O)CC[C@]12C [EMENIVEOL]	inactive	31.4	inactive	inactive	
CC(C)=CCC[C@]1(C)[C@@H](O)CC[C@@]2(C)[C@H]1CC[C@H]1Cc3c([nH]c4ccccc34)[C@@]12C [EMINDOLE SB]	inactive	60.3	inactive	inactive	

Source: ChEMBL document CHEMBL1255534, “Indoloditerpenes from an algicolous isolate of Aspergillus oryzae” (Bioorg Med Chem Lett, 2010)
